# Assay results taken from patent EP1138666B1, “A preparation method for 4-(P-methoxyphenyl)-2-amino-butane and an insecticidal composition comprising it” (Council of Scientific and Industrial Research, priority 2000, dated 2001).
# Columns and labels:
# [1] = sensitivity to light (UV and sunlight); format: physicochemical
# [2] = system: 4th instar larvae of Spilarctia Obliqua; experiment: feeding deterrency (antifeedant) bioassay, diet-mix method, fecal pellet count; format: in vivo; conditions: for % feeding deterrency: artificial diet, after 24 hours; for antifeedant activity: result in words, bioassay studies
# Description: (§1) The compound having formula (1) was evaluated as feeding deterrent and growth inhibitor against 4th in star larvae of spilarctia obliqua (Bihar hairy caterpillar). This insect attacks more than twenty cash crops like urd, moong, arhar, mint and coleus etc. Several synthetic insecticides like quinalphos, Phosphamidon and synthetic pyrethroids are commercially used to manage this insect pest. But, the insect is developing resistance towards some of these insecticides. Therefore, it has now become imperative to search for new ecologically safe, environmentally sound and non-toxic chemicals to manage this pest.
# (§2) With compound having formula (1) insect feeding deterrency and growth inhibition was tested by diet-mix method. In this method, 4-(p-methoxyphenyl)-2-aminobutane,the compound having formula (1) was dissolved in acetone to make various concentrations ranging from 1000 to 5000 ppm. Test solution was mixed in the artificial diet of the insect so that each gram of diet contained 60-300 µg of the compound (1). 4th in star larva (newly molted) starved four hours, was weighed and released on treated artificial diet in thirty replications. In control, only solvent acetone was mixed and azadirachtin at 1000 ppm concentration was taken as standard for feeding bioassay. After 24 hours, number of fecal pellets produced were counted, and the data were analyzed for % feeding deterrency. Some experiments were continued for next 24 hours and weights of the larva were taken daily. After 3 days, experiment was discontinued and weight gain or loss was analyzed for % growth inhibition.
# [3] = system: 4th instar larvae of Spilarctia Obliqua; experiment: growth inhibition assay, diet-mix method, larval weight gain or loss; format: in vivo; conditions: for growth inhibition: result in words, bioassay studies
# Description: as §1, §2
# Diflubenzuron at 5 ppm was taken as a standard in case of growth inhibitory assay. The test result of compound having formula (1) in terms of its feeding deterrency and growth inhibition as compared to standards azadirachtin and diflubenzuron are given in table 1.
# [4] = Spilarctia obliqua, 72 h, read-out: % growth inhibition
compound,measurement,setting,value
"C/C=C(\C)C(=O)O[C@H]1C[C@@H](OC(C)=O)[C@@]2(C(=O)OC)CO[C@H]3[C@@H](O)[C@@](C)([C@]45O[C@@]4(C)[C@H]4C[C@@H]5O[C@@H]5OC=C[C@@]54O)[C@H]4[C@]1(CO[C@]4(O)C(=O)OC)[C@@H]32 [Azadirachtin, reference compound]",sensitivity to light,[1],photosensitive
same,% feeding deterrency,[2]; 1000 ppm,100.0%
"COc1ccc(CCC(C)N)cc1 (stereo not drawn) [Compound 1, 4-(p-methoxyphenyl)-2-amino-butane]",sensitivity to light,[1],not sensitive to light
same,% feeding deterrency,[2]; 1000 ppm,32.0%
same,% feeding deterrency,[2]; 2000 ppm,40.0%
same,% feeding deterrency,[2]; 3000 ppm,64.0%
same,% feeding deterrency,[2]; 4000 ppm,82.0%
same,% feeding deterrency,[2]; 5000 ppm,100.0%
same,antifeedant activity,[2],significant activity
same,inhibition at 1000 ppm,[3]; [4],48%
same,inhibition at 2000 ppm,[3]; [4],59%
same,inhibition at 3000 ppm,[3]; [4],72%
same,inhibition at 4000 ppm,[3]; [4],100%
same,inhibition at 5000 ppm,[3]; [4],128%
same,growth inhibition,[3],significant activity
"O=C(NC(=O)c1c(F)cccc1F)Nc1ccc(Cl)cc1 [Diflubenzuron, reference compound]",inhibition at 5 ppm,"[3]; Spilarctia obliqua, 72 h, 5 ppm, artificial diet, after 3 days",100%
"CC(O)CCc1ccc(O)cc1 (stereo not drawn) [compound (2), 4-(p-hydroxyphenyl)-butan-2-ol]",antifeedant activity,[2],not found to be active
same,growth inhibition,[3],not found to be active
